Like-named read-outs stand apart in the source and are kept apart here.
Legend:
[1] = test system: SupT1 T cells; experiment: Cytotoxicity in SupT1 T cells; conditions: concentrations greater than 125 nM
[2] = test system: HIV-1Ba-L; experiment: HIV-1 Ba-L replication in PBMCs; format: cell-based; conditions: Human immunodeficiency virus 1, PBMC, 168 h
[3] = test system: HIV-1NL4-3; experiment: HIV-1NL4-3 replication in H9; format: cell-based; conditions: H9 cells expressing A3G, 62.5 and 125 nM
[4] = test system: H9 cells; experiment: Cytotoxicity in H9 T cells; conditions: concentrations greater than 125 nM
[5] = test system: HIV-1NL4-3; experiment: HIV-1NL4-3 replication in SupT1; format: cell-based; conditions: SupT1 T cells lacking A3G, 62.5 and 125 nM
[6] = test system: A3G; format: cell-based, human; conditions: for effect on A3G protein levels: absence of redoxal treatment
[7] = test system: HIV-1NL4-3; experiment: HIV-1NL4-3 spreading infection in CEM cells; format: cell-based; conditions: CEM cells (high A3G); 312.5, 625, 1250 nM; 3, 6, 9 days
[8] = test system: VSV-G pseudotyped NL4-3GFPΔEnv viruses; format: cell-based, HIV-1
[9] = test system: HIV-1 91US001; experiment: HIV-1 91US001 replication in PBMCs; format: cell-based; conditions: HIV-1 isolate 91US001 in PBMCs, 7 days, RT assay
[10] = molecular target: Vif-Cul5 interaction (Human immunodeficiency virus type 1 group M subtype B, UniProt P12504); experiment: Co-immunoprecipitation of Vif and Cul5 from 293T cells; format: cell-based; conditions: 1250 nM, 40 h
Chain of Vif-Cul5 interaction (P12504 whole entry): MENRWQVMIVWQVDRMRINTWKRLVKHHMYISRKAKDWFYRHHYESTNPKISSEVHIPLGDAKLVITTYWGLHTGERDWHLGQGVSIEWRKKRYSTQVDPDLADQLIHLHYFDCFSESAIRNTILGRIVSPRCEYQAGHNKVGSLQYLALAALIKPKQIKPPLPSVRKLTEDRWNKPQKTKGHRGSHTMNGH

[11] = test system: HIV-1NL4-3; experiment: HIV-1NL4-3 spreading infection in CEM-SS cells; format: cell-based; conditions: CEM-SS cells (very low A3G); 312.5, 625, 1250 nM
[12] = test system: A3G; conditions: infected CEM cells, 1250 nM, 6 days post infection
[13] = test system: VSV-G pseudotyped NL4-3GFPΔEnv viruses; format: cell-based, HIV-1; remark: listed apart in the source
[14] = test system: HIV-1 89BZ167; experiment: HIV-1 89BZ167 replication in PBMCs; format: cell-based; conditions: HIV-1 isolate 89BZ167 in PBMCs, 7 days, RT assay
[15] = test system: Vif; experiment: Vif protein stability in transfected 293T cells, CHX time course; format: cell-based, HIV-1; conditions: 1250 nM 36 h, then CHX
[16] = test system: Vif; experiment: Western blot of Vif in HIV-1 infected CEM cell lysates; conditions: infected CEM cells, 1250 nM
[17] = molecular target: Vif-CBFβ interaction (Human immunodeficiency virus type 1 group M subtype B, UniProt P12504); format: cell-based; conditions: unpublished preliminary co-immunoprecipitation experiments
Chain of Vif-CBFβ interaction (P12504 whole entry): as above

How did the cytotoxicity [1] turn out when `COC(=O)c1ccc(O)c2nc3c(C=O)c(O)cc(O)c3nc12` [lomofungin] was run?
The cytotoxicity was “significant cytotoxicity”.

What about the IC50 [2] of the same compound?
Its IC50 is 70 nM.

And the antiviral activity [3]?
Its antiviral activity is “strong antiviral activity”.

What about the cytotoxicity [4] of the same compound?
Its cytotoxicity is “significant cytotoxicity”.

What about the antiviral activity [5] of the same compound?
Its antiviral activity is “not in SupT1 T cells”.

Which “effect on A3G protein levels” value [6] does the source give for `O=C(O)c1cc(=O)[nH]c(=O)[nH]1` [orotate] here?
Its value is “no significant effect”.

`O=c1ccn([C@@H]2O[C@H](CO)[C@@H](O)[C@H]2O)c(=O)[nH]1` [uridine] was tested. Which “effect on A3G protein levels” value [6] did it give?
The value was “no significant effect”.

How did the “inhibition of viral replication” value [7] turn out when `COc1cc(-c2ccc(Nc3ccccc3C(=O)O)c(OC)c2)ccc1Nc1ccccc1C(=O)O` [redoxal] was run?
Its value is “inhibited viral replication in a dose-dependent manner”.

What about the decrease in infectivity [8] of the same compound?
Its decrease in infectivity is “approximately 50%”.

What about the IC50 [9] of the same compound?
The IC50 was 1740 nM.

What about the “effect on Vif-Cul5 interaction” value [10] of the same compound?
Its value is “no effect”.

And the “inhibition of viral replication” value [11]?
Its value is “not CEM-SS cells”.

And the A3G protein levels [12]?
Its A3G protein levels is “modest increase”.

What about the virus production [13] of the same compound?
The virus production was “inhibited virus production”.

And the IC50 [14]?
The IC50 was 590 nM.

And the A3G protein levels [6]?
The A3G protein levels was “increased”.

And the “steady-state levels of A3G protein in CHX time course” value ([6]; 293T cells with A3G-3xHA and pNL4-3GFPΔEnv, 1250 nM 36 h, then CHX 4 h)?
Its value is “stabilized”.

What about the “increase of A3G protein levels” value ([6]; virus producer 293T cells expressing HIV-1 Vif, 1250 nM) of the same compound?
Its value is “approximately 50%”.

What about the “effect on Vif protein stability” value [15] of the same compound?
The value was “no significant effect”.

And the Vif protein levels [16]?
The Vif protein levels was “reduced Vif protein levels”.

What about the “effect on Vif-CBFβ interaction” value [17] of the same compound?
Its value is “did not disrupt”.

From paper PMC4567410 (Virology, 2015)
